Results on 23 compounds are retold here after patent US8309721B2, “HSP90 inhibitory carbazole derivatives, compositions containing same and use thereof” (Sanofi, priority 2008, dated 2012).

The test system of experiment [1] is Her2 receptor expression at the surface of SKBr3 cells. Description: phenotypic SKBr3/HER2 cell test (Her2 surface expression by flow cytometry). The class given is cell-based. Particulars: Homo sapiens, SK-BR-3, 24 h incubation, inhibition of Her2 expression. The protocol: The cellular activity of the compounds can in particular be evaluated by means of the phenotypic “SKBr3/HER2” cell test described below:
The SKBr3 […] adenocarcinoma cells, overexpressing the Her2 tyrosine kinase receptor, originate from the ATCC (HTB-30) and are cultured in McCoy's 5A medium supplemented with 10% FBS and 1% L-glutamine.
The cells are seeded in 12-well plates at a proportion of 125 000 cells per well in 1 ml of complete medium. The following day, the products are added at varying concentrations. After incubation for 24 h, the cells are trypsinized, washed with PBS and incubated with 100 ng of anti-Her2 antibody coupled to PE (Phycoerythrin) (BD 340552) for 30 minutes at 4° C. in the dark. The fluorescence due to the expression of the Her2 receptor at the surface of the cells is then read using a FACS Calibur flow cytometer (Becton-Dickinson). The percentage inhibition of Her2 expression as a function of the concentrations of product tested is fitted by the nonlinear regression technique (XLfit, equation 205) in order to measure an IC50 for each product.

In the next experiment the target is Hsp82 (Saccharomyces cerevisiae, UniProt P02829). Briefly: Hsp82/ATPase test (malachite green or PK/LDH coupled method). The class given is biochemical. The method, then:
The biochemical activity of the compounds can in particular be evaluated by means of the “Hsp82/ATPase” test described below: The inorganic phosphate released during the hydrolysis of ATP by the ATPase activity of Hsp82 is quantified by the malachite green method. In the presence of this reagent, formation of the inorganic phosphate-molybdate-malachite green complex, which absorbs at a wavelength of 620 nm, occurs. The products to be evaluated are incubated in a reaction volume of 30 μl, in the presence of 1 μM Hsp82 and of 250 μM of substrate (ATP) in a buffer composed of 50 mM Hepes-NaOH (pH 7.5), 1 mM DTT, 5 mM MgCl2 and 50 mM KCl at 37° C. for 60 min. In parallel, an inorganic phosphate range of between 1 and 40 μM is made up in the same buffer. […] After incubation at ambient temperature for 20 min, the absorbance of the various wells is measured using a microplate reader at 620 nm. The inorganic phosphate concentration of each sample is then calculated from the standard curve. The ATPase activity of Hsp82 is expressed as concentration of inorganic phosphate produced in 60 minutes. The effect of the various products tested is expressed as percentage inhibition of the ATPase activity. The formation of ADP due to the ATPase activity of Hsp82 was used to develop another method for evaluating the enzyme activity of this enzyme by application of an enzymatic coupling system involving pyruvate kinase (PK) and lactate dehydrogenase (LDH). In this kinetic-type spectrophotometric method, PK catalyses the formation of ATP and of pyruvate from phosphoenol pyruvate (PEP) and the ADP produced by Hsp82. The pyruvate formed, which is a substrate for LDH, is subsequently converted to lactate in the presence of NADH. In this case, the decrease in the NADH concentration, measured through the decrease in absorbance at the wavelength of 340 nm, is proportional to the concentration of ADP produced by Hsp82. The products tested are incubated in a reaction volume of 100 μl of buffer composed of 100 mM Hepes-NaOH (pH 7.5), 5 mM MgCl2, 1 mM DTT, 150 mM KCl, 0.3 mM NADH, 2.5 mM PEP and 250 μM ATP. This mixture is preincubated at 37° C. for 30 minutes before the addition of 3.77 units of LDH and 3.77 units of PK. The reaction is initiated by addition of the product to be evaluated, in varying concentrations, and of Hsp82, at the concentration of 1 μM. The enzymatic activity of Hsp82 is then measured continuously, in a microplate reader, at 37° C., at the wavelength of 340 nm. The initial rate of the reaction is obtained by measuring the slope of the tangent to the origin of the curve recorded. The enzymatic activity is expressed in μM of ADP formed per minute. The effect of the various products tested is expressed as percentage inhibition of the ATPase activity according to the codification below: […]

Setting [2] is: 1 μM Hsp82, 250 μM ATP, 37° C., read-out: Hsp82 ATPase IC50.

SMILES strings stand for the structures. Counter-ions that a name gives are not always drawn. Like-named read-outs stand apart in the source and are kept apart here.

Chain of Hsp82 (P02829 whole entry): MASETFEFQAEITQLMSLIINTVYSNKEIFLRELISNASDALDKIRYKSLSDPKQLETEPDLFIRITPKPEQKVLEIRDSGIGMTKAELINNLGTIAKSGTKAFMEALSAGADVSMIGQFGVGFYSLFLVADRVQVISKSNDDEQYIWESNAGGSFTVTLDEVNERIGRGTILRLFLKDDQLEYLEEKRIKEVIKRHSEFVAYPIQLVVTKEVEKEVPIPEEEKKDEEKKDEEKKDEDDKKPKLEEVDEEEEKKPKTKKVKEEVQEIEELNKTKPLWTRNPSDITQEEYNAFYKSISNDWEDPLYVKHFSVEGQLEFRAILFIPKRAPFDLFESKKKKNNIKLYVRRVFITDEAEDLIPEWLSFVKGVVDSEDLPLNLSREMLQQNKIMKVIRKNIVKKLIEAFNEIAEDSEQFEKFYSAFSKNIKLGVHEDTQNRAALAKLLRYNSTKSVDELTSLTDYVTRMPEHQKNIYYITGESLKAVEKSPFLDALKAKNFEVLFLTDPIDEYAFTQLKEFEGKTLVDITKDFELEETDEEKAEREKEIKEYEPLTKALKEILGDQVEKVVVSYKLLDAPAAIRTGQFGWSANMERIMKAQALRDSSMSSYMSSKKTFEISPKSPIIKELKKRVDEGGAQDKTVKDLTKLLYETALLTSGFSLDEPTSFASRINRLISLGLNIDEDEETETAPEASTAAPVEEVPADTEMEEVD

Regarding `CC(CCO)Nc1cc(-n2c3ccccc3c3c(-c4nc5ccc(F)cc5[nH]4)cccc32)ccc1C(N)=O` (racemic) [Example 39], the IC50 (in experiment [1]; on Hsp82 (setting [2])) was < 1 µM in each case.
In the case of `NC(=O)CCNc1cc(-n2c3ccccc3c3c(-c4nc5ccc(F)cc5[nH]4)cccc32)ccc1C(N)=O` [Example 47, 2-(2-carbamoylethylamino)-4-[4-(6-fluoro-1H-benzimidazol-2-yl)-9H-carbazol-9-yl]benzamide], the IC50 (in experiment [1]; at Hsp82 (setting [2])) was < 1 µM each time.
`NC(=O)c1ccc(-n2c3ccccc3c3c(-c4cnc(N)nc4)cccc32)cc1NCCCO` [Example 56, 4-[4-(2-aminopyrimidin-5-yl)-9H-carbazol-9-yl]-2-[(3-hydroxypropyl)amino]benzamide hydrochloride]: the IC50 at Hsp82 (setting [2]) is < 1 µM.
Take `CC(=O)NCCNc1cc(-n2c3ccccc3c3c(-c4nc5ccc(F)cc5[nH]4)cccc32)ccc1C(N)=O` [Example 17, 2-(2-acetylaminoethylamino)-4-[4-(6-fluoro-1H-benzimidazol-2-yl)-9H-carbazol-9-yl]benzamide]: the IC50 (in experiment [1]; at Hsp82 (setting [2])) was < 1 µM throughout.
Take `NC(=O)c1ccc(-n2c3ccccc3c3c(-c4nc5ccc(F)cc5[nH]4)cccc32)cc1NCc1ccn[nH]1` [Example 51, 4-[4-(6-fluoro-1H-benzimidazol-2-yl)-9H-carbazol-9-yl]-2-[(2H-pyrazol-3-ylmethyl)amino]benzamide]: the figures for the IC50 (in experiment [1]; on Hsp82 (setting [2])) were < 1 µM and 1 to 10 µM, respectively.
Take `NC(=O)c1ccc(-n2c3ccccc3c3c(-c4nc5ccc(F)cc5[nH]4)cccc32)cc1NCc1ccco1` [Example 48, 4-[4-(6-fluoro-1H-benzimidazol-2-yl)-9H-carbazol-9-yl]-2-[(furan-2-ylmethyl)amino]benzamide]: the figures for the concentration for half-maximal inhibition (IC50) (in experiment [1]; at Hsp82 (setting [2])) were < 1 µM and 1 to 10 µM, respectively.
For `NC(=O)c1ccc(-n2c3ccccc3c3c(-c4nc5ccc(F)cc5[nH]4)cccc32)cc1NCc1ccoc1` [Example 50, 4-[4-(6-fluoro-1H-benzimidazol-2-yl)-9H-carbazol-9-yl]-2-[(furan-3-ylmethyl)amino]benzamide] the same measures were < 1 µM and 1 to 10 µM.
With `CN1C2CCC1CC(Nc1cc(-n3c4ccccc4c4c(-c5cnc6ccccc6c5)cccc43)ccc1C(N)=O)C2` (stereo not drawn) [Example 138, 2-(8-methyl-8-azabicyclo[3.2.1]oct-3-yl)amino-4-[4-(quinolin-3-yl)-9H-carbazol-9-yl]benzamide], the IC50 (in experiment [1]; at Hsp82) was < 1 µM in each case.
Take `NC(=O)c1ccc(-n2c3ccccc3c3c(-c4cnc5ccccc5c4)cccc32)cc1NCCC1(O)CCCC1` [Example 64]: the IC50 (in experiment [1]; on Hsp82 (setting [2])) was < 1 µM in each case.
`CNC(=O)CNc1cc(-n2c3ccccc3c3c(-c4nc5ccc(F)cc5[nH]4)cccc32)ccc1C(N)=O` [Example 44, 4-[4-(6-fluoro-1H-benzimidazol-2-yl)-9H-carbazol-9-yl]-2-(methylcarbamoylmethylamino)benzamide]: the results for the IC50 (in experiment [1]; on Hsp82 (setting [2])) were < 1 µM and 1 to 10 µM, respectively.
Taken in the same sequence, the figures for `NC(=O)c1ccc(-n2c3ccccc3c3c(-c4nc5ccc(F)cc5[nH]4)cccc32)cc1NCCCO` [Example 8, 4-[4-(6-fluoro-1H-benzimidazol-2-yl)-9H-carbazol-9-yl]-2-(3-hydroxypropylamino)benzamide] were < 1 µM and < 1 µM.
Turning to `NC(=O)c1ccc(-n2c3ccccc3c3c(-c4cnc(N)nc4)cccc32)cc1N[C@H]1CC[C@H](O)CC1` [Example 55, 4-[4-(2-aminopyrimidin-5-yl)-9H-carbazol-9-yl]-2-[(4-trans-hydroxycyclohexyl)amino]benzamide hydrochloride], the concentration for half-maximal inhibition (IC50) (in experiment [1]; at Hsp82 (setting [2])) was < 1 µM throughout.
On to `CCOCCNc1cc(-n2c3ccccc3c3c(-c4nc5ccc(F)cc5[nH]4)cccc32)ccc1C(N)=O` [Example 46, 2-(2-ethoxyethylamino)-4-[4-(6-fluoro-1H-benzimidazol-2-yl)-9H-carbazol-9-yl]benzamide], for which the IC50 is < 1 µM in experiment [1] and 1 to 10 µM on Hsp82 (setting [2]).
Taken in the same sequence, the figures for `NC(=O)CCNc1cc(-n2c3ccccc3c3c(-c4cnc5ccccc5c4)cccc32)ccc1C(N)=O` [Example 34, 2-(2-carbamoylethylamino)-4-[4-(quinolin-3-yl)-9H-carbazol-9-yl]benzamide] were < 1 µM and < 1 µM.
For `NC(=O)c1ccc(-n2c3ccccc3c3c(-c4ccc(N)nc4)cccc32)cc1N[C@H]1CC[C@H](O)CC1` [Example 20, 4-[4-(6-aminopyridin-3-yl)-9H-carbazol-9-yl]-2-[(4-trans-hydroxycyclohexyl)amino]benzamide] the same measures were < 1 µM and < 1 µM.
Taken in the same sequence, the figures for `NCC(CO)Oc1cc(-n2c3ccccc3c3c(-c4nc5ccc(F)cc5[nH]4)cccc32)ccc1C(N)=O` (stereo not drawn) [Example 53, 2-(2-amino-1-hydroxymethylethyloxy)-4-[4-(6-fluoro-1H-benzimidazol-2-yl)-9H-carbazol-9-yl]benzamide] were 1 to 10 µM and 1 to 10 µM.
Regarding `CC(O)CCNc1cc(-n2c3ccccc3c3c(-c4cnc5ccccc5c4)cccc32)ccc1C(N)=O` (stereo not drawn) [Example 32, 2-(3-hydroxybutyl)amino-4-[4-(quinolin-3-yl)-9H-carbazol-9-yl]benzamide], the IC50 (in experiment [1]; at Hsp82 (setting [2])) was < 1 µM each time.
With `NC(=O)c1ccc(-n2c3ccccc3c3c(-c4nc5ccc(F)cc5[nH]4)cccc32)cc1NCCO` [Example 42, 4-[4-(6-fluoro-1H-benzimidazol-2-yl)-9H-carbazol-9-yl]-2-(2-hydroxyethylamino)benzamide], the IC50 (in experiment [1]; on Hsp82 (setting [2])) was < 1 µM each time.
Regarding `CC(C)(C)OC(=O)NCC(=O)O[C@H]1CC[C@H](Nc2cc(-n3c4ccccc4c4c(-c5nc6ccc(F)cc6[nH]5)cccc43)ccc2C(N)=O)CC1` [Example 21, tert-butoxycarbonylaminoacetic acid 4-trans-{2-carbamoyl-5-[4-(6-fluoro-1H-benzimidazol-2-yl)-9H-carbazol-9-yl]phenylamino}cyclohexyl ester], the IC50 is < 1 µM in experiment [1] and 1 to 10 µM at Hsp82 (setting [2]).
Turning to `CN(C)CCNc1cc(-n2c3ccccc3c3c(-c4nc5ccc(F)cc5[nH]4)cccc32)ccc1C(N)=O` [Example 43, 2-(2-dimethylaminoethylamino)-4-[4-(6-fluoro-1H-benzimidazol-2-yl)-9H-carbazol-9-yl]benzamide], the IC50 (in experiment [1]; at Hsp82 (setting [2])) was < 1 µM throughout.
`CC(C)(C)OC(=O)N1CCC(Nc2cc(-n3c4ccccc4c4c(-c5cnc6ccccc6c5)cccc43)ccc2C(N)=O)CC1` [Example 123] came in with an IC50 in experiment [1] of 1 to 10 µM.
Same read-out and setting: the same measure for `CC(C)(O)CCNc1cc(-n2c3ccccc3c3c(-c4ccc(C#N)nc4)cccc32)ccc1C(N)=O` [Example 125, 4-[4-(6-cyanopyridin-3-yl)-9H-carbazol-9-yl]-2-[(3-hydroxy-3-methylbutyl)amino]benzamide]: < 1 µM; for `NC(=O)c1ccc(-n2c3ccccc3c3c(-c4cnc5ccccc5c4)cccc32)cc1N[C@H]1CCCC[C@@H]1CO` (racemic) [Example 100, 2-[1(R,S),2(R,S)-2-hydroxymethyl-cyclohexyl-1-amino]-4-[4-(quinolin-3-2-yl)-9H-carbazol-9-yl]benzamide]: < 1 µM.
